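Briefly, cells in 96-well plates were exposed to five compound concentrations for 48 h, and endpoints were estimated by linear interpolation. The concentration for full growth arrest is given as TGI.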
Tests used:
Assay in all cases: NCI-60 cell line screen, 48 h
[1] = tested on: 786-0 renal
[2] = tested on: A498 renal
[3] = tested on: A549 NSCLC
[4] = tested on: ACHN renal
[5] = tested on: BT-549 breast
[6] = tested on: CAKI-1 renal
[7] = tested on: CCRF-CEM leukemia
[8] = tested on: COLO 205 colon
[9] = tested on: DU-145 prostate
[10] = tested on: EKVX NSCLC
[11] = tested on: HCC-2998 colon
[12] = tested on: HCT-116 colon
[13] = tested on: HCT-15 colon
[14] = tested on: HL-60(TB) leukemia
[15] = tested on: HOP-62 NSCLC
[16] = tested on: HOP-92 NSCLC
[17] = tested on: HS 578T breast
[18] = tested on: HT29 colon
[19] = tested on: IGROV1 ovarian
[20] = tested on: K-562 leukemia
[21] = tested on: KM12 colon
[22] = tested on: LOX IMVI melanoma
[23] = tested on: M14 melanoma
[24] = tested on: MALME-3M melanoma
[25] = tested on: MCF7 breast
[26] = tested on: MDA-MB-231 breast
[27] = tested on: MDA-MB-435
[28] = tested on: MDA-N
[29] = tested on: MOLT-4 leukemia
[30] = tested on: NCI-H226 lung
[31] = tested on: NCI-H23 lung
[32] = tested on: NCI-H460 lung
[33] = tested on: NCI-H522 lung
[34] = tested on: NCI/ADR-RES ovarian
[35] = tested on: OVCAR-3 ovarian
[36] = tested on: OVCAR-4 ovarian
[37] = tested on: OVCAR-5 ovarian
[38] = tested on: OVCAR-8 ovarian
[39] = tested on: PC-3 prostate
[40] = tested on: RPMI-8226 leukemia
[41] = tested on: RXF 393 renal
[42] = tested on: SF-268 CNS
[43] = tested on: SF-295 CNS
[44] = tested on: SF-539 CNS
[45] = tested on: SK-MEL-2 melanoma
[46] = tested on: SK-MEL-28 melanoma
[47] = tested on: SK-MEL-5 melanoma
[48] = tested on: SK-OV-3 ovarian
[49] = tested on: SN12C renal
[50] = tested on: SNB-19 CNS
[51] = tested on: SNB-75 CNS
[52] = tested on: SR leukemia
[53] = tested on: SW-620 colon
[54] = tested on: T-47D breast
[55] = tested on: TK-10 renal
[56] = tested on: U251 CNS
[57] = tested on: UACC-257 melanoma
[58] = tested on: UACC-62 melanoma
[59] = tested on: UO-31 renal
[60] = tested on: DLD-1 colon
[61] = tested on: DMS 114 small cell lung
[62] = tested on: KM20L2 colon
[63] = tested on: M19-MEL melanoma
[64] = tested on: SNB-78 CNS
[65] = tested on: XF 498 CNS

`CC1CC[C@@]2(OC1)OC1C[C@H]3[C@@H]4CC[C@H]5CC(OC6OC(CO)C(OC7OC(CO)C(O)C(O)C7O)C(O)C6O)CCC5(C)[C@H]4CCC3(C)C1[C@@H]2C` (stereo partly specified) showed a TGI [1] of 15.6 µM, a TGI [2] of 16.3 µM and a TGI [3] of 19.6 µM. The TGI [4] was 14.5 µM, the TGI [5] was 11 µM and the TGI [6] was 16.9 µM. The TGI [7] was 21.7 µM, the TGI [8] was 14 µM and the TGI [9] was 18 µM. For the same compound, the TGI [10] was 12.2 µM, the TGI [11] was 12.9 µM and the TGI [12] was 15 µM. For the same compound, the TGI [13] was 28.9 µM, the TGI [14] was 18.5 µM and the TGI [15] was 16.1 µM. For the same compound, the TGI [16] was 16.5 µM, the TGI [17] was 17.1 µM and the TGI [18] was 15.8 µM. It also gave a TGI [19] of 9.77 µM, a TGI [20] of 42.6 µM and a TGI [21] of 15.8 µM. For the same compound, the TGI [22] was 12.3 µM, the TGI [23] was 18.2 µM and the TGI [24] was 15.7 µM. The TGI [25] was 15 µM, the TGI [26] was 17.2 µM and the TGI [27] was 18 µM. The TGI [28] was 16.3 µM, the TGI [29] was 25.4 µM and the TGI [30] was 16.5 µM. The TGI [31] was 16.2 µM, the TGI [32] was 21.1 µM and the TGI [33] was 13.8 µM. For the same compound, the TGI [34] was 19.9 µM, the TGI [35] was 14.6 µM and the TGI [36] was 17.1 µM. The TGI [37] was 17.2 µM, the TGI [38] was 16.7 µM and the TGI [39] was 15.1 µM. It also gave a TGI [40] of 45.3 µM, a TGI [41] of 19.8 µM and a TGI [42] of 18.1 µM. For the same compound, the TGI [43] was 16.4 µM, the TGI [44] was 16.3 µM and the TGI [45] was 15.3 µM. It also gave a TGI [46] of 16.6 µM, a TGI [47] of 16.1 µM and a TGI [48] of 18.7 µM. The TGI [49] was 15.3 µM, the TGI [50] was 17.9 µM and the TGI [51] was 18.7 µM. It also gave a TGI [52] of 27.5 µM, a TGI [53] of 17.8 µM and a TGI [54] of 20.4 µM. It also gave a TGI [55] of 17.6 µM, a TGI [56] of 17.4 µM and a TGI [57] of 18.3 µM. It also gave a TGI [58] of 17.6 µM and a TGI [59] of 22.5 µM.
In the case of `Cc1cccc(C)c1NC(=O)CCCC(=O)C1CC(=O)CCC1=O` (stereo unspecified), the TGI [1] is reported as > 100 µM, the TGI [2] is reported as > 100 µM and the TGI [4] is reported as > 100 µM. The TGI [60] was > 100 µM, the TGI [61] was > 100 µM and the TGI [10] was > 100 µM. For the same compound, the TGI [11] was > 100 µM, the TGI [12] was > 100 µM and the TGI [13] was > 100 µM. The TGI [15] was > 100 µM, the TGI [18] was > 100 µM and the TGI [62] was > 100 µM. The TGI [63] was > 100 µM, the TGI [24] was > 100 µM and the TGI [29] was > 100 µM. For the same compound, the TGI [30] was > 100 µM, the TGI [31] was > 100 µM and the TGI [33] was > 100 µM. For the same compound, the TGI [35] was > 100 µM, the TGI [36] was > 100 µM and the TGI [38] was > 100 µM. The TGI [40] was > 100 µM, the TGI [41] was > 100 µM and the TGI [42] was > 100 µM. For the same compound, the TGI [44] was > 100 µM, the TGI [46] was > 100 µM and the TGI [48] was > 100 µM. The TGI [49] was > 100 µM, the TGI [50] was > 100 µM and the TGI [51] was > 100 µM. For the same compound, the TGI [64] was > 100 µM, the TGI [52] was > 100 µM and the TGI [56] was > 100 µM. For the same compound, the TGI [57] was > 100 µM, the TGI [58] was > 100 µM and the TGI [59] was > 100 µM. The TGI [65] was > 100 µM.

— PubChem BioAssay (NCI)
